US20030027856A1, “Tolterodine metabolites” (priority 2001, published 2003)

Tested on: muscarinic receptors
Test: Functional characterization of antimuscarinic activities on smooth muscle strips
Design: species or system guinea pig
Settings: pharmacological studies in comparison with tolterodine
Procedure: Experiments are performed using methods similar to those described by Kachur et al, 1988 (R and S enantiomers of oxybutynin: Pharmacological effects in guinea pig bladder and intestine. J Pharmacol Exp Ther 247: 867-872) and Noronha-Blob and Kachur, 1991 (Enantiomers of Oxybutynin: In vitro pharmacological characterization at M1, M2 and M3 muscarinic receptors and in vivo effects on urinary bladder contraction, mydriasis and salivary secretion in guinea pigs. J Pharmacol Exp Ther 256: 562-567). Strips of tissue (approximately 10 mm long and 1.5 mm wide) are removed from the body of the urinary bladder of male guinea pigs weighing 400-600 g. […] Contractions are recorded with transducers on a polygraph.
The present series of experiments focuses on the anticholinergic actions of DES-TOLT, and RS-DES-TOLT and their metabolites. In these experiments, in order to assess the viability of each tissue and to serve as a frame of reference, contractions of each strip of tissue are recorded initially in response to exposure to tissue medium in which NaCl is replaced by KCl to yield a concentration of 137.7 mM KCl in the medium. This is followed by return to the standard medium, and then by exposures to progressively in creasing concentrations of carbachol, with separate exposures to each concentration only until the peak response has been recorded. […]
With `CC(C)NCC[C@H](c1ccccc1)c1cc(CO)ccc1O` [5-HM-DES-TOLT, R(+)-N-Isopropyl-3-(2-hydroxy-5-(hydroxymethyl)phenyl)-3-phenylpropylamine] the antimuscarinic activities was “potent antimuscarinic activities”.
In the case of `Cc1ccc(O)c([C@H](CCNC(C)C)c2ccccc2)c1` [DES-TOLT, R(+)-N-isopropyl-3-(2-hydroxy-5-methylphenyl)-3-phenylpropylamine], the antimuscarinic activities is reported as “potent antimuscarinic activities”.

Tested on: not listed separately
Test: Cardiac side effects: QTc interval of the EKG in anesthetized guinea pigs
Format: in vivo
Settings: guinea pig, intravenous infusion over 30 min
Procedure: Male guinea pigs (450-600 g) are anesthetized with freshly prepared dialurethane sodium. The jugular vein is catheterized for iv administration of test drugs and the trachea is exposed and cannulated. Subdermal electrodes are positioned for Lead II electrocardiogram recording, monitored on a Grass Polygraph recorder, set at a paper speed of 50 mm/sec. The animals are allowed to stabilize for 30 minute after completion of surgery, and three baseline EKG recordings are then made at 10-minute intervals. The animals are then given a dose of the test compound or vehicle as an intravenous infusion over 30 min. EKG recordings are used to determine QT intervals and heart rates. To compensate for variations in heart rates, QTc intervals are calculated from QT- and RR-intervals as known to those skilled in the art. Prolongation of QTc is indicative of a prolonged action potential, caused by an inhibition of the delayed rectifier potassium channel. Prolongation of QTc is the known cause of Torsades de Pointes ventricular fibrillation by drugs such as terfenadine, astemizole and terodiline (now withdrawn from the market).
In the case of `CC(C)N(CC[C@H](c1ccccc1)c1cc(CO)ccc1O)C(C)C` [5-HM, R(+)-N,N-diisopropyl-3-(2-hydroxy-5-(hydroxymethyl)phenyl)-3-phenylpropylamine], the “prolongation of the QTc-interval of the EKG” value is reported as “did not cause a prolongation of the QTc interval”.
In the case of `Cc1ccc(O)c(C(CCN(C(C)C)C(C)C)c2ccccc2)c1` (centres unmarked) [RS-TOLT, RS-N,N-diisopropyl-3-(2-hydroxy-5-methylphenyl)-3-phenylpropylamine, reference compound], the “prolongation of the QTc-interval of the EKG” value is reported as “cause a prolongation of the QTc-interval”.
With `Cc1ccc(O)c(C(CCNC(C)C)c2ccccc2)c1` (centres unmarked) [RS-DES-TOLT, RS-N-Isopropyl-3-(2-hydroxy-5-methylphenyl)-3-phenylpropylamine] the “prolongation of the QTc-interval of the EKG” value was “did not cause a prolongation of the QTc interval”.
In the case of `CC(C)N(CCC(c1ccccc1)c1cc(CO)ccc1O)C(C)C` (centres unmarked) [RS-5-HM, RS-N,N-diisopropyl-3-(2-hydroxy-5-(hydroxymethyl)phenyl)-3-phenylpropylamine], the “prolongation of the QTc-interval of the EKG” value is reported as “did not cause a prolongation of the QTc interval”.
With `Cc1ccc(O)c([C@H](CCNC(C)C)c2ccccc2)c1` [DES-TOLT, R(+)-N-isopropyl-3-(2-hydroxy-5-methylphenyl)-3-phenylpropylamine] the “prolongation of the QTc-interval of the EKG” value was “did not cause a prolongation of the QTc interval”.
In the case of `Cc1ccc(O)c([C@H](CCN(C(C)C)C(C)C)c2ccccc2)c1` [TOLT, R(+)-N,N-diisopropyl-3-(2-hydroxy-5-methylphenyl)-3-phenylpropylamine], the “prolongation of the QTc-interval of the EKG” value is reported as “cause a prolongation of the QTc-interval”.
